Experimental data: US10208033B2, “β-carboline, dihydro-β-carboline and tetrahydro-β-carboline alkaloid derivatives and preparation methods same and use in aspects of preventing and treating plant viruses, fungicides and insecticides” (NANKAI UNIVERSITY, priority 2013, dated 2019)

What was measured:
[1] = test system: Colletotrichum orbiculare; experiment: Fungicidal (bactericidal) activity in vitro, PDA colony diameter; format: cell-based; settings: 50 mg/kg; for inhibition of growth at 50 mg/kg: Colletotrichum orbiculare, 96 h
Bipolaria maydis = experiment: organism not typed; format: cell-based; settings: for inhibition at 50 mg/kg: read-out: Bactericidal activity (%) Bipolaria maydis
Macrophoma kawatsukai = experiment: Fungicidal (bactericidal) activity in vitro, PDA colony diameter; format: cell-based; settings: 50 mg/kg
mosquito larvae = experiment: whole plant or invertebrate; settings: for mortality at 5 mg/kg / mortality at 10 mg/kg: Culex pipiens, read-out: Mosquito larvae Mortality (%)
Procedure, shortened: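 Compound dissolved in acetone (or other solvent) to a 1000 ppm stock and diluted in water to 5 ppm. Ten Culex pipiens pallens larvae at the start of the fourth instar, laboratory-reared, added per beaker; solvent-only aqueous control.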

Alternaria solani = experiment: Fungicidal (bactericidal) activity in vitro, PDA colony diameter; format: cell-based; settings: 50 mg/kg; for inhibition of growth at 50 mg/kg: Alternaria solani, 96 h
Fusarium graminearumt = experiment: microbe, parasite or virus in culture; format: cell-based; settings: for inhibition of growth at 50 mg/kg: Fusarium, 96 h, read-out: Bactericidal activity (%) Fusarium graminearumt
Rhizoctonia cereali = experiment: Fungicidal (bactericidal) activity in vitro, PDA colony diameter; format: cell-based; settings: 50 mg/kg; for inhibition of growth at 50 mg/kg: Rhizoctonia, 96 h
cucumber fusarium wilt = experiment: as above; format: cell-based; settings: 50 mg/kg; for inhibition of growth at 50 mg/kg: Fusarium, 96 h
Phytophthora capsici = experiment: as above; format: cell-based; settings: 50 mg/kg; for inhibition of growth at 50 mg/kg: Phytophthora capsici, 96 h
corn borers [2] = experiment: whole plant or invertebrate; settings: read-out: Corn borer Mortality (%)
cotton bollworms = experiment: whole plant or invertebrate; settings: for mortality at 600 mg/kg: Helicoverpa armigera, in Gossypium hirsutum, read-out: Cotton bollworm Mortality (%)
Description: Experimental method of cotton bollworms: feed and drug mixing method: measure 3 mL of prepared solution and add it to about 27 g of newly prepared feed, thereby obtaining needed concentration through dilution by 10 times.

[3] = test system: tobacco mosaic virus (TMV); experiment: Anti-TMV in vivo inactivation; design: species or system tobacco mosaic virus (host Nicotiana tabacum L.cv.Xanthi NN); settings: for inhibition at 100 µg/mL / inhibition at 500 µg/mL: Tobacco mosaic virus, read-out: Relative inhibition rate (%) In vivo inactivation
potato late blight = experiment: microbe, parasite or virus in culture; format: cell-based; settings: for inhibition of growth at 50 mg/kg: Phytophthora infestans, 96 h, read-out: Bactericidal activity (%) potato late blight
[4] = test system: tobacco mosaic virus (TMV); experiment: Anti-TMV in vivo therapeutic effect; design: species or system tobacco mosaic virus (host Nicotiana tabacum L.cv.Xanthi NN); settings: for inhibition at 100 µg/mL / inhibition at 500 µg/mL: Tobacco mosaic virus, read-out: Relative inhibition rate (%) In vivo therapy
[5] = test system: tobacco mosaic virus (TMV); experiment: Anti-TMV in vivo protective effect; design: species or system tobacco mosaic virus (host Nicotiana tabacum L.cv.Xanthi NN); settings: for inhibition at 100 µg/mL / inhibition at 500 µg/mL: Tobacco mosaic virus, read-out: Relative inhibition rate (%) In vivo protection
Fusarium fujikuroi = experiment: Fungicidal (bactericidal) activity in vitro, PDA colony diameter; format: cell-based; settings: 50 mg/kg; for inhibition of growth at 50 mg/kg: Fusarium fujikuroi, 96 h
Cercospora arachidicola = experiment: as above; format: cell-based; settings: 50 mg/kg; for inhibition of growth at 50 mg/kg: Mycosphaerella arachidis, 96 h
Botrytis cinerea = experiment: as above; format: cell-based; settings: 50 mg/kg; for inhibition of growth at 50 mg/kg: Botrytis cinerea, 96 h
Sclerotinia scleotiorum = experiment: as above; format: cell-based; settings: 50 mg/kg; for inhibition of growth at 50 mg/kg: Sclerotinia, 96 h
armyworms = format: in vivo; settings: concentration 600 mg/kg
[6] = test system: tobacco mosaic virus (TMV); experiment: Anti-TMV in vitro effect (half-leaf soaking); format: cell-based, tobacco mosaic virus (host Nicotiana tabacum L.cv.Xanthi NN); settings: for inhibition at 100 µg/mL / inhibition at 500 µg/mL: Tobacco mosaic virus, read-out: Relative inhibition rate (%) In vitro activity
Rhizoctonia solani = experiment: Fungicidal (bactericidal) activity in vitro, PDA colony diameter; format: cell-based; settings: 50 mg/kg; for inhibition of growth at 50 mg/kg: Rhizoctonia solani, 96 h
corn borers [7] = settings: concentration 600 mg/kg

In the case of Cc1nccc2c1[nH]c1cc(O)ccc12 [Harmol], the inhibition of growth at 50 mg/kg [1] is reported as 46.4%, the inhibition at 50 mg/kg (Bipolaria maydis) is reported as 31.8% and the inhibition at 50 mg/kg (Macrophoma kawatsukai) is reported as 23.8%. The mortality at 5 mg/kg (mosquito larvae; 24 h) was 30%, the mortality at 10 mg/kg (mosquito larvae; 24 h) was 100% and the inhibition of growth at 50 mg/kg (Alternaria solani) was 26.3%. For the same molecule, the inhibition of growth at 50 mg/kg (Fusarium graminearumt) was 23.8%, the inhibition of growth at 50 mg/kg (Rhizoctonia cereali) was 42.1% and the inhibition of growth at 50 mg/kg (cucumber fusarium wilt) was 26.9%. It also gave an inhibition of growth at 50 mg/kg (Phytophthora capsici) of 25%, a mortality at 600 mg/kg (corn borers [2]) of 45% and a mortality at 600 mg/kg (cotton bollworms) of 20%. It also gave an inhibition at 100 µg/mL [3] of 0%, an inhibition at 500 µg/mL [3] of 35.1% and an inhibition of growth at 50 mg/kg (potato late blight) of 22.7%. For the same molecule, the inhibition at 100 µg/mL [4] was 0%, the inhibition at 500 µg/mL [4] was 30% and the inhibition at 100 µg/mL [5] was 9.5%. It also gave an inhibition at 500 µg/mL [5] of 36.7%, an inhibition of growth at 50 mg/kg (Fusarium fujikuroi) of 28.6% and an inhibition of growth at 50 mg/kg (Cercospora arachidicola) of 46.2%. The inhibition of growth at 50 mg/kg (Botrytis cinerea) was 9.1%, the inhibition of growth at 50 mg/kg (Sclerotinia scleotiorum) was 5.9% and the “Armyworm Mortality (%)” value (armyworms) was 50%. The inhibition at 100 µg/mL [6] was 0%, the inhibition at 500 µg/mL [6] was 32.6% and the inhibition of growth at 50 mg/kg (Rhizoctonia solani) was 50%.

With Cc1nccc2c1[nH]c1ccc([N+](=O)[O-])cc12 [Ia-3] the inhibition of growth at 50 mg/kg [1] was 23.8%, the inhibition at 50 mg/kg (Bipolaria maydis) was 31.6% and the inhibition at 50 mg/kg (Macrophoma kawatsukai) was 35.3%. The mortality at 5 mg/kg (mosquito larvae; 24 h) was 60%, the mortality at 10 mg/kg (mosquito larvae; 24 h) was 100% and the “activity against culex pipiens larvae (in words)” value (mosquito larvae; at 5 mg/kg) was “still show high activity”. The inhibition of growth at 50 mg/kg (Alternaria solani) was 33.3%, the inhibition of growth at 50 mg/kg (Fusarium graminearumt) was 50% and the inhibition of growth at 50 mg/kg (Rhizoctonia cereali) was 59.4%. The inhibition of growth at 50 mg/kg (cucumber fusarium wilt) was 23.8%, the inhibition of growth at 50 mg/kg (Phytophthora capsici) was 36.4% and the mortality at 600 mg/kg (corn borers [2]) was 50%. It also gave a mortality at 600 mg/kg (cotton bollworms) of 35%, an inhibition at 100 µg/mL ([3]; treatment dose 100 μg/mL) of 0% and an inhibition at 500 µg/mL ([3]; treatment dose 500 μg/mL) of 21.5%. It also gave an inhibition of growth at 50 mg/kg (potato late blight) of 25%, an inhibition at 100 µg/mL ([4]; treatment dose 100 μg/mL) of 0% and an inhibition at 500 µg/mL ([4]; treatment dose 500 μg/mL) of 18.5%. For the same molecule, the inhibition at 100 µg/mL ([5]; treatment dose 100 μg/mL) was 0%, the inhibition at 500 µg/mL ([5]; treatment dose 500 μg/mL) was 26.1% and the inhibition of growth at 50 mg/kg (Fusarium fujikuroi) was 42.9%. The inhibition of growth at 50 mg/kg (Cercospora arachidicola) was 7.1%, the inhibition of growth at 50 mg/kg (Botrytis cinerea) was 54.6% and the inhibition of growth at 50 mg/kg (Sclerotinia scleotiorum) was 56%. The “Armyworm Mortality (%)” value (armyworms) was 50%, the inhibition at 100 µg/mL ([6]; treatment dose 100 μg/mL) was 0% and the inhibition at 500 µg/mL ([6]; treatment dose 500 μg/mL) was 15.7%. The inhibition of growth at 50 mg/kg (Rhizoctonia solani) was 10.7%.

For C[C@@H]1N[C@H](C(=O)NNC(=O)c2ccncc2)Cc2c1[nH]c1ccccc21 [Id-3, (1S, 3S)—N′-isonicotinoyl-1-methyl-2,3,4,9-tetrahydropyridino [3,4-b] indol-3-formylhydrazine], the “Bactericidal activity (%) Colletotrichum orbiculare” value [1] was 36.0%, the “Bactericidal activity (%) Bipolaria maydis” value (Bipolaria maydis; 50 mg/kg) was 16.0% and the “Bactericidal activity (%) Macrophoma kawatsukai” value (Macrophoma kawatsukai) was 39.4%. For the same molecule, the “Mosquito larvae Mortality (%)” value (mosquito larvae; concentration 10 mg/kg, 24 h) was 50%, the “Bactericidal activity (%) Alternaria solani” value (Alternaria solani) was 14.3% and the “Bactericidal activity (%) Fusarium graminearumt” value (Fusarium graminearumt; 50 mg/kg) was 53.8%. The “Bactericidal activity (%) Rhizoctonia cereali” value (Rhizoctonia cereali) was 18.9%, the “Bactericidal activity (%) Cucumber fusarium wilt” value (cucumber fusarium wilt) was 13.6% and the “Bactericidal activity (%) Phytophthora capsici” value (Phytophthora capsici) was 15.2%. The “Cotton bollworm Mortality (%)” value (cotton bollworms; concentration 600 mg/kg) was 40%, the “Relative inhibition rate (%) In vivo inactivation” value ([3]; treatment dose 100 μg/mL) was 17.9% and the “Relative inhibition rate (%) In vivo inactivation” value ([3]; treatment dose 500 μg/mL) was 45.3%. The “Bactericidal activity (%) potato late blight” value (potato late blight) was 26.1%, the “Relative inhibition rate (%) In vivo therapy” value ([4]; treatment dose 100 μg/mL) was 11.6% and the “Relative inhibition rate (%) In vivo therapy” value ([4]; treatment dose 500 μg/mL) was 45%. For the same molecule, the “Relative inhibition rate (%) In vivo protection” value ([5]; treatment dose 100 μg/mL) was 14.2%, the “Relative inhibition rate (%) In vivo protection” value ([5]; treatment dose 500 μg/mL) was 42.1% and the “Bactericidal activity (%) Fusarium fujikuroi” value (Fusarium fujikuroi) was 29.4%. For the same molecule, the “Bactericidal activity (%) Cercospora arachidicola” value (Cercospora arachidicola) was 27.3%, the “Bactericidal activity (%) Botrytis cinerea” value (Botrytis cinerea) was 55.6% and the “Bactericidal activity (%) Sclerotinia scleotiorum” value (Sclerotinia scleotiorum) was 3.8%. For the same molecule, the “Corn borer Mortality (%)” value (corn borers [7]) was 25%, the “Armyworm Mortality (%)” value (armyworms) was 25% and the “Relative inhibition rate (%) In vitro activity” value ([6]; treatment dose 100 μg/mL) was 6.4%. The “Relative inhibition rate (%) In vitro activity” value ([6]; treatment dose 500 μg/mL) was 39.2% and the “Bactericidal activity (%) Rhizoctonia solani” value (Rhizoctonia solani) was 15.3%.
